According to patent US4604239A, “Antibiotics” (Eli Lilly and Company, priority 1985, dated 1986):
Values after ≈ are worked out from the molar mass of the structure shown. Where two headings read alike, the source gives them in different places.

Tests used:
[1] = tested on: Streptococcus sp. (Group D); assay: agar-dilution MIC; format: cell-based; conditions: Streptococcus sp. Group D X66; end point after 24 hours; Table 18
Source text: (§1) The agar-dilution procedure described by the International Collaborative study (ICS) group was used to determine the minimum inhibitory concentrations (MIC's).

[2] = tested on: Staphylococcus epidermidis; assay: agar-dilution MIC; format: cell-based
Source text: as §1

Streptococcus pneumoniae = assay: agar-dilution MIC; format: cell-based
Source text: as §1

Bacteroides corrodens [3] = assay: agar-dilution MIC; format: cell-based; conditions: Bacteroides corrodens 1874; Table 14
Bacteroides corrodens [4] = assay: agar-dilution MIC; format: cell-based; conditions: B. corrodens 1874; 24-hour; Table 12
Source text: (§2) The A41030 antibiotics, factors A, B, and C, are active against a genus of anaerobic bacteria identified as Bacteroides sp., the 24-hour MIC values being determined by the agar-dilution method, and are set forth in Table 12, which follows.

Bacteroides vulgatis = assay: agar-dilution MIC; format: cell-based; conditions: B. vulgatis 1563; 24-hour; Table 12
Source text: as §2

[5] = tested on: Bacteroides thetaiotaomicron; format: cell-based
Source text: as §1

Staph. aureus = assay: experimental bacterial infection in mice; format: in vivo; conditions: two doses subcutaneously
Method: All of the A41030 factors tested have shown in vivo antimicrobial activity against experimental bacterial infections. When two doses of test compound were administered subcutaneously to mice in illustrative infections, the activity observed is measured as an ED50 value [effective dose in mg./kg. to protect fifty percent of the test animals: See Warren Wick, et al., J. Bacteriol. 81, 233-235 (1961)].

Clostridium perfringens = format: cell-based; conditions: Clostridium perfringens 81; Table 14
[6] = tested on: Peptostreptococcus anaerobius; assay: agar-dilution MIC; format: cell-based
[7] = tested on: Bacteroides melaninogenicus; assay: agar-dilution MIC; format: cell-based; conditions: Bacteroides melaninogenicus 2736; Table 14
Clostridium septicum = assay: agar-dilution MIC; format: cell-based; conditions: Clostridium septicum 1128; Table 14
Clostridium difficile = format: cell-based
Peptococcus constellatus = assay: agar-dilution MIC; format: cell-based; conditions: Pc. constellatus 1468; Table 15
Method: (§3) The MIC values were determined by the agar-dilution method, and are recorded in Table 15, which follows.

Peptococcus magnus = assay: agar-dilution MIC; format: cell-based; conditions: Pc. magnus 1477; Table 15
Method: as §3

[8] = tested on: Peptococcus asaccharolyticus; assay: agar-dilution MIC; format: cell-based; conditions: Table 15
Method: as §3

Peptococcus prevoti = assay: agar-dilution MIC; format: cell-based; conditions: Table 15
Method: as §3

[9] = tested on: Peptostreptococcus intermedius; assay: agar-dilution MIC; format: cell-based
[10] = tested on: Fusobacterium necrophorum; assay: agar-dilution MIC; format: cell-based; conditions: Fusobacterium necrophorum 6054A; Table 14

`NC1C(=O)NC2Cc3ccc(c(Cl)c3)Oc3cc4cc(c3O)Oc3ccc(cc3Cl)C(O)C3NC(=O)C(NC(=O)C4NC(=O)C(NC2=O)c2cc(O)cc(c2)Oc2cc1ccc2O)c1cc(Cl)c(O)c(c1)-c1c(O)cc(O)cc1C(C(=O)O)NC3=O` (centres unmarked) [A41030 factor A] was tested, and the MIC [1] was 0.25 µg/mL (≈ 0.203 µM), the MIC ([2]; Staphylococcus epidermidis 219, end point after 24 hours, Table 18) was 0.06 µg/mL (≈ 0.0486 µM) and the MIC ([2]; Staphylococcus epidermidis 269, end point after 24 hours, Table 18) was 0.06 µg/mL (≈ 0.0486 µM). For the same compound, the MIC ([2]; Staphylococcus epidermidis 270, end point after 24 hours, Table 18) was 0.06 µg/mL (≈ 0.0486 µM), the MIC ([2]; Staphylococcus epidermidis 285, end point after 24 hours, Table 18) was 0.06 µg/mL (≈ 0.0486 µM) and the MIC ([2]; Staphylococcus epidermidis Britton, Table 11) was 0.13 µg/mL (≈ 0.105 µM). For the same compound, the MIC ([2]; Staphylococcus epidermidis EPI2, Table 17) was 1 µg/mL (≈ 0.811 µM), the MIC ([2]; Staphylococcus epidermidis Litton, Table 11) was 0.13 µg/mL (≈ 0.105 µM) and the MIC ([2]; Staphylococcus epidermidis Mencher, Table 11) was no more than 0.06 µg/mL. The MIC ([2]; Staphylococcus epidermidis Mobley, Table 11) was no more than 0.06 µg/mL, the MIC (Streptococcus pneumoniae; Streptococcus pneumoniae 2764, Table 11) was 0.25 µg/mL (≈ 0.203 µM) and the MIC (Streptococcus pneumoniae; Streptococcus pneumoniae 6301, Table 11) was 0.25 µg/mL (≈ 0.203 µM). The MIC (Streptococcus pneumoniae; Streptococcus pneumoniae B1-438, end point after 24 hours, Table 18) was 0.25 µg/mL (≈ 0.203 µM), the MIC (Streptococcus pneumoniae; Streptococcus pneumoniae BI-343, Table 11) was 0.25 µg/mL (≈ 0.203 µM) and the MIC (Streptococcus pneumoniae; Streptococcus pneumoniae Park I, Table 11) was 0.25 µg/mL (≈ 0.203 µM). For the same compound, the MIC (Streptococcus pneumoniae; Streptococcus pneumoniae Park I, Table 17) was 0.5 µg/mL (≈ 0.405 µM), the MIC (Streptococcus pneumoniae; Streptococcus pneumoniae Type 14, Table 11) was 0.25 µg/mL (≈ 0.203 µM) and the MIC (Bacteroides corrodens [3]) was 64 µg/mL (≈ 51.9 µM). For the same compound, the MIC (Bacteroides corrodens [4]) was 32 µg/mL (≈ 25.9 µM), the MIC (Bacteroides vulgatis) was 32 µg/mL (≈ 25.9 µM) and the MIC ([5]; B. thetaiotaomicron 1438, 24-hour, Table 12) was 64 µg/mL (≈ 51.9 µM). It also gave an MIC ([5]; Bacteroides thetaiotaomicron 1438, Table 14) of 64 µg/mL (≈ 51.9 µM), an ED50 (Staph. aureus) of 1.4 mg/kg and an MIC (Clostridium perfringens) of 0.5 µg/mL (≈ 0.405 µM). It also gave an MIC ([6]; Peptostreptococcus anaerobius 1428, Table 14) of no more than 0.25 µg/mL, an MIC ([6]; Ps. anaerobius 8, Table 15) of 0.5 µg/mL (≈ 0.405 µM) and an MIC ([6]; Ps. anaerobius 52, Table 15) of 0.5 µg/mL (≈ 0.405 µM). For the same compound, the MIC ([6]; Ps. anaerobius 59, Table 15) was 0.5 µg/mL (≈ 0.405 µM), the MIC ([6]; Ps. anaerobius 1418, Table 15) was no more than 0.03 µg/mL and the MIC ([6]; Ps. anaerobius 1428, Table 15) was 0.5 µg/mL (≈ 0.405 µM). For the same compound, the MIC ([6]; Ps. anaerobius 1451, Table 15) was 0.5 µg/mL (≈ 0.405 µM), the MIC ([6]; Ps. anaerobius 1477, Table 15) was 0.5 µg/mL (≈ 0.405 µM) and the MIC [7] was 4 µg/mL (≈ 3.24 µM). The MIC (Clostridium septicum) was 2 µg/mL (≈ 1.62 µM), the MIC (Clostridium difficile; Clostridium difficile 78, Table 16) was 1.0 µg/mL (≈ 0.811 µM) and the MIC (Clostridium difficile; Clostridium difficile 107B, Table 16) was 1.0 µg/mL (≈ 0.811 µM). It also gave an MIC (Clostridium difficile; Clostridium difficile 111F, Table 16) of 1.0 µg/mL (≈ 0.811 µM), an MIC (Clostridium difficile; Clostridium difficile 1153, Table 16) of 1.0 µg/mL (≈ 0.811 µM) and an MIC (Clostridium difficile; Clostridium difficile 2634, Table 16) of 1.0 µg/mL (≈ 0.811 µM). The MIC (Clostridium difficile; Clostridium difficile 2994, Table 14) was 32 µg/mL (≈ 25.9 µM), the MIC (Clostridium difficile; Clostridium difficile 3424-5B, Table 16) was 1.0 µg/mL (≈ 0.811 µM) and the MIC (Clostridium difficile; Clostridium difficile 3816, Table 16) was 1.0 µg/mL (≈ 0.811 µM). For the same compound, the MIC (Clostridium difficile; Clostridium difficile 3950D, Table 16) was 1.0 µg/mL (≈ 0.811 µM), the MIC (Clostridium difficile; Clostridium difficile 6890, Table 16) was 1.0 µg/mL (≈ 0.811 µM) and the MIC (Clostridium difficile; Clostridium difficile 8484, Table 16) was 1.0 µg/mL (≈ 0.811 µM). The MIC (Clostridium difficile; Clostridium difficile A-194, Table 16) was 1.0 µg/mL (≈ 0.811 µM), the MIC (Clostridium difficile; Clostridium difficile A-195, Table 16) was 1.0 µg/mL (≈ 0.811 µM) and the MIC (Clostridium difficile; Clostridium difficile A-196, Table 16) was 1.0 µg/mL (≈ 0.811 µM). The MIC (Clostridium difficile; Clostridium difficile A-279, Table 16) was 1.0 µg/mL (≈ 0.811 µM), the MIC (Clostridium difficile; Clostridium difficile A-280, Table 16) was 1.0 µg/mL (≈ 0.811 µM) and the MIC (Clostridium difficile; Clostridium difficile A-281, Table 16) was 1.0 µg/mL (≈ 0.811 µM). For the same compound, the MIC (Clostridium difficile; Clostridium difficile WAL-2112, Table 16) was 1.0 µg/mL (≈ 0.811 µM), the MIC (Clostridium difficile; Clostridium difficile WAL-3657, Table 16) was 1.0 µg/mL (≈ 0.811 µM) and the MIC (Clostridium difficile; Clostridium difficile WAL-4268, Table 16) was 1.0 µg/mL (≈ 0.811 µM). For the same compound, the MIC (Peptococcus constellatus) was 0.5 µg/mL (≈ 0.405 µM), the MIC (Peptococcus magnus) was 0.5 µg/mL (≈ 0.405 µM) and the MIC ([8]; Pc. asaccharolyticus 1302) was no more than 0.03 µg/mL. It also gave an MIC ([8]; Pc. asaccharolyticus 1344) of 0.5 µg/mL (≈ 0.405 µM), an MIC (Peptococcus prevoti; Pc. prevoti 1293) of 1.0 µg/mL (≈ 0.811 µM) and an MIC (Peptococcus prevoti; Pc. prevoti 1407) of 1.0 µg/mL (≈ 0.811 µM). For the same compound, the MIC ([9]; Peptostreptococcus intermedius 1264, Table 14) was 1.0 µg/mL (≈ 0.811 µM), the MIC ([9]; Ps. intermedius 1264, Table 15) was no more than 0.03 µg/mL and the MIC ([9]; Ps. intermedius 1524, Table 15) was 0.5 µg/mL (≈ 0.405 µM). It also gave an MIC ([9]; Ps. intermedius 1624, Table 15) of 1.0 µg/mL (≈ 0.811 µM) and an MIC [10] of 8 µg/mL (≈ 6.49 µM).
